Reference: patent US10487056B2, “Small molecule androgen receptor inhibitors and methods of use thereof” (GEORGETOWN UNIVERSITY, priority 2015, dated 2019)

Experiments:
Format in all cases: cell-based
AR [1] = assay: 22Rv1-ARE-luc androgen-response element luciferase reporter assay; conditions: range of doses, 24 hours
Method: VCaP and CWR22Rv1 (referred to as 22Rv1) cells were transduced with ARE-luciferase Cignal Lenti Pathway Reporter (Qiagen; Valencia, Calif.) and cultured as described above in the presence of 1 μg/mL puromycin. Following antibiotic selection, cells stably expressing ARE-luciferase were isolated, cloned and cultured to generate a stable ARE-reporter cell lines.

22Rv1 cells [2] = assay: MTT cell viability assay, 22Rv1 cells; conditions: 3 days
Method: Cells were treated in the manner indicated below for the specified period of time. MTT assay was performed as described in Amin et al., Mol. Cancer Ther., 13:341-52 (2014).
To determine the effects of SH-I-125 on prostate cancer cell growth, 22Rv1 cells were treated with SH-I-125 and cell viability was measured after a period of 3 days. […]. In comparison, non-tumorigenic primary prostate epithelial cells (PrEC) retained 80% viability in the presence of a similar range of doses of SH-I-125, showing that tumorigenic cells are more susceptible to the growth inhibitory properties of SH-I-125 compared to non-tumorigenic cells (FIG. 8B). […] Staurosporine was used as a positive control for cell death induction in live and dead assays (FIG. 9C).

22Rv1 cells [3] = assay: Caspase-Glo 3/7 activity assay, 22Rv1 cells; conditions: 3 days
Method: 22Rv1 cells were treated with SH-I-125 (1 μM) for one, two, or three days, and caspase 3/7 activity was measured using Caspase-Glo 3/7 substrates. […] Data represent mean of three independent experiments with quadruplicate samples; bars, SEM. ***, p value <0.001 determined by ANOVA.
(§1) Caspase 3/7 activity was measured using Caspase-Glo 3/7 substrates. Data represent mean of three independent experiments with quadruplicate samples; bars, SEM. ***, p value <0.001 determined by ANOVA.
[…]; Madison, Wis.).
. […] Staurosporine was used as a positive control for apoptosis induction (FIG. 10B).

VCaP cells = assay: Caspase-Glo 3/7 activity assay, VCaP cells; conditions: 3 days
Method: as §1

AR and AR-V7 = assay: Western blot of AR and AR-V7 levels in 22Rv1 cells; conditions: 3 days, SH-I-125 at 1 μM
Method: AR levels were assessed by Western blotting. β-actin was used as a loading control.
(§2) AR and AR-V7 levels were assessed. β-actin was used as a loading control.
as §2
MG132 (5 μM), a known proteasome inhibitor, was added on Day 2. AR expression was assessed by Western blotting. β-actin was used as a loading control.

VCaP-MDVR cells = assay: Cell viability (MTT), VCaP-MDVR cells; conditions: MDV3100, ARN-509 10 μM, SH-I-125 range, 3 days
Method: (§6) Cell viability was measured using the MTT assay.

22Rv1-MDVR cells = assay: Cell viability (MTT), 22Rv1-MDVR cells; conditions: MDV3100, ARN-509 10 μM, SH-I-125 range, 3 days
Method: as §6

AR [4] = assay: VCaP-MDVR-ARE-luc luciferase reporter assay; conditions: VCaP-MDVR-ARE-luc cells, range of doses, 24 hours
Method: (§3) […]. Luciferase activity was measured and plotted as a percentage of control. Data represent the mean of three independent experiments with quadruplicate samples; bars, SEM. ***, p value <0.001 determined by ANOVA.
(§4) VCaP-MDVR and 22Rv1-MDVR stably expressing ARE-luciferase construct (VCaP-MDVR-ARE-luc and 22Rv1-MDVR-ARE-luc) were generated as described above in the Materials and Methods section. […].

AR [5] = assay: 22Rv1-MDVR-ARE-luc luciferase reporter assay; conditions: 22Rv1-MDVR-ARE-luc cells, range of doses, 24 hours
Method: as §3, §4

AR [6] = assay: Immunofluorescence staining of AR in 22Rv1-MDVR cells; conditions: MDV3100 10 μM, ARN509 10 μM or SH-I-125 1 μM, 24 hours
Method: […]. AR and AR-V7 expression levels were assessed.
(§5) Immunofluorescence staining was performed as described in Amin et al., Mol. Cancer Ther., 13:341-52 (2014).

AR [7] = assay: Immunofluorescence staining of AR and PSA in VCaP-MDVR cells; conditions: DHT 1 nM, MDV3100 10 μM or SH-I-125 1 μM, 24 hours
Method: AR and PSA expression levels were assessed.
as §5

SMILES | inhibitory effect on ARE-luciferase activity (plateau) (AR [1]) [%] | prevention of growth compared with SH-I-125 (22Rv1 cells [2]) | caspase 3/7 activity (22Rv1 cells [3]) | caspase 3/7 activity (VCaP cells) | cellular AR and AR-V7 levels (AR and AR-V7) | cell growth / viability (VCaP-MDVR cells) | cell growth / viability (22Rv1-MDVR cells) | reduction of luciferase activity (AR [4]) [%] | luciferase activity (AR activity) (AR [5]) | AR nuclear localization (AR [6]) | AR expression / nuclear localization (AR [7]) | PSA expression (AR [7])
CNC(=O)c1ccc(N2C(=S)N(c3cnc(C#N)c(C(F)(F)F)c3)C(=O)C23CCC3)cc1F [ARN-509] | 50 | significantly less effective | did not have a similar effect | did not have a similar effect | no effect | continued proliferation | continued proliferation | 50 | unchanged from control | unaffected | – | –
CNC(=O)c1ccc(N2C(=S)N(c3ccc(C#N)c(C(F)(F)F)c3)C(=O)C2(C)C)cc1F [MDV3100] | – | significantly less effective | did not have a similar effect | did not have a similar effect | no effect | continued proliferation | continued proliferation | 50 | unchanged from control | unaffected | AR expression was not attenuated | continued to inhibit PSA expression
